Test results taken from the CheMixHub viscosity set.
Values joined by “and” are separate entries in the source; they are usually repeats but may differ in a detail not shown here. Identical values can stand only once. ± gives the uncertainty stated by the source.

Columns and labels:
[1] = xn = mol fraction of the nth substance listed

## BrC(Br)(Br)Br
298.15 K, 101 kPa
  viscosity: 3.987 ± 0.049 mPa·s

## Cc1cccc2ccccc12
303.15 K, 100 kPa
  viscosity: 2.58 ± 0.17 mPa·s and 2.62 ± 0.065 mPa·s and 2.582 mPa·s
323.15 K, 100 kPa
  viscosity: 1.75 ± 0.11 mPa·s and 1.75 ± 0.044 mPa·s and 1.748 mPa·s

## CC1CCCCC1=O (stereo unspecified)
303.15 K, 100 kPa
  viscosity: 2.225 ± 0.05 mPa·s
303.15 K, 101 kPa
  viscosity: 2.225 ± 0.077 mPa·s
303.15 K, 101.33 kPa
  viscosity: 1.406 ± 0.039 mPa·s
308.15 K, 100 kPa
  viscosity: 2.168 ± 0.049 mPa·s
308.15 K, 101 kPa
  viscosity: 2.168 ± 0.075 mPa·s
313.15 K, 100 kPa
  viscosity: 2.111 ± 0.048 mPa·s

## CN(C)CCCO
293.15 K, 100 kPa
  viscosity: 7.42 ± 0.37 mPa·s
303.15 K, 100 kPa
  viscosity: 5.228 ± 0.26 mPa·s
303.15 K, 101 kPa
  viscosity: 4.933 ± 0.058 mPa·s
308.15 K, 101 kPa
  viscosity: 4.22 ± 0.05 mPa·s
313.15 K, 100 kPa
  viscosity: 4.007 ± 0.2 mPa·s
313.15 K, 101 kPa
  viscosity: 3.632 ± 0.043 mPa·s
318.15 K, 101 kPa
  viscosity: 3.155 ± 0.038 mPa·s
323.15 K, 100 kPa
  viscosity: 3.082 ± 0.16 mPa·s
323.15 K, 101 kPa
  viscosity: 2.765 ± 0.034 mPa·s

## NCCNCCO.O=S(=O)([N-]S(=O)(=O)C(F)(F)F)C(F)(F)F.[Li+]
323.15 K, 101 kPa
  viscosity: 735.9 ± 140 mPa·s

## CCC1CCCCC1
298.15 K, 100 kPa
  viscosity: 0.797 ± 0.017 mPa·s and 0.792 ± 0.025 mPa·s and 0.801 ± 0.033 mPa·s
303.15 K, 100 kPa
  viscosity: 0.747 ± 0.016 mPa·s and 0.741 ± 0.023 mPa·s
308.15 K, 100 kPa
  viscosity: 0.705 ± 0.015 mPa·s and 0.697 ± 0.022 mPa·s and 0.701 ± 0.029 mPa·s
313.15 K, 100 kPa
  viscosity: 0.662 ± 0.014 mPa·s and 0.65 ± 0.02 mPa·s and 0.664 ± 0.027 mPa·s
318.15 K, 100 kPa
  viscosity: 0.627 ± 0.014 mPa·s and 0.617 ± 0.019 mPa·s
323.15 K, 100 kPa
  viscosity: 0.585 ± 0.013 mPa·s and 0.57 ± 0.018 mPa·s and 0.586 ± 0.024 mPa·s

## CC(=O)OCCC1CCCCC1
300 K, 101 kPa
  viscosity: 2.54 ± 0.04 mPa·s
310 K, 101 kPa
  viscosity: 2.07 ± 0.03 mPa·s
320 K, 101 kPa
  viscosity: 1.72 ± 0.03 mPa·s

## C=CCn1cc[n+](C)c1.O=S(=O)([N-]S(=O)(=O)C(F)(F)F)C(F)(F)F
298.15 K, 100 kPa
  viscosity: 34.31 ± 1.1 mPa·s

## CCCCCCCCCO
298 K, 100 kPa
  viscosity: 9.587 ± 0.064 mPa·s and 7.614 ± 0.05 mPa·s
298.15 K, 100 kPa
  viscosity: 9.566 ± 0.13 mPa·s
298.15 K, 101.3 kPa
  viscosity: 8.965 ± 0.096 mPa·s and 9.692 ± 0.2 mPa·s
303.15 K, 100 kPa
  viscosity: 7.967 ± 0.11 mPa·s
303.15 K, 101.3 kPa
  viscosity: 7.375 ± 0.081 mPa·s
303.15 K, 101.33 kPa
  viscosity: 7.376 ± 0.076 mPa·s
308.15 K, 100 kPa
  viscosity: 6.59 ± 0.087 mPa·s and 6.675 ± 0.2 mPa·s
308.15 K, 101.3 kPa
  viscosity: 6.114 ± 0.07 mPa·s and 6.494 ± 0.14 mPa·s
318.15 K, 100 kPa
  viscosity: 4.852 ± 0.063 mPa·s and 4.814 ± 0.15 mPa·s
323.15 K, 100 kPa
  viscosity: 4.179 ± 0.055 mPa·s and 4.145 ± 0.13 mPa·s

## CC(=O)N(C)C
293.15 K, 101.33 kPa
  viscosity: 1.02 ± 0.15 mPa·s
298 K, 101.33 kPa
  viscosity: 0.906 ± 0.011 mPa·s
298.15 K, 101.3 kPa
  viscosity: 0.917 ± 0.021 mPa·s
298.15 K, 101.33 kPa
  viscosity: 0.92 ± 0.023 mPa·s
298.16 K, 101 kPa
  viscosity: 0.927 ± 0.009 mPa·s
303.15 K, 101.3 kPa
  viscosity: 0.8769 ± 0.0056 mPa·s
308.15 K, 101.33 kPa
  viscosity: 0.823 ± 0.007 mPa·s
313.15 K, 100 kPa
  viscosity: 0.765 ± 0.031 mPa·s
323.15 K, 101 kPa
  viscosity: 0.673 ± 0.009 mPa·s and 0.69 ± 0.01 mPa·s
323.15 K, 101.33 kPa
  viscosity: 0.72 ± 0.11 mPa·s

## CCCCCCCC[n+]1ccn(C)c1.F[B-](F)(F)F
298.15 K, 101 kPa
  viscosity: 336.3 ± 28 mPa·s and 336.3 ± 22 mPa·s
303.15 K, 101 kPa
  viscosity: 257.5 ± 78 mPa·s
308.15 K, 101 kPa
  viscosity: 193.8 ± 59 mPa·s
313.15 K, 101 kPa
  viscosity: 148.8 ± 45 mPa·s
323.15 K, 101 kPa
  viscosity: 92.1 ± 28 mPa·s

## CCCCCCCC[P+](CC)(CC)CC.O=[N+]([O-])c1cn[n-]c1
293.15 K, 100 kPa
  viscosity: 398 ± 19 mPa·s
298.15 K, 100 kPa
  viscosity: 282 ± 11 mPa·s
303.15 K, 100 kPa
  viscosity: 207 ± 7 mPa·s
308.15 K, 100 kPa
  viscosity: 155 ± 5 mPa·s
313.15 K, 100 kPa
  viscosity: 119 ± 3 mPa·s
318.15 K, 100 kPa
  viscosity: 94 ± 2 mPa·s
323.15 K, 100 kPa
  viscosity: 75 ± 2 mPa·s

## CC1CCCCC1=O (stereo unspecified) + CN(C)C=O
[1]; 303.15 K, 100 kPa, x1 = 0.0825
  viscosity: 0.889 ± 0.02 mPa·s
[1]; 303.15 K, 100 kPa, x1 = 0.1712
  viscosity: 1.027 ± 0.023 mPa·s
[1]; 303.15 K, 100 kPa, x1 = 0.2787
  viscosity: 1.192 ± 0.027 mPa·s
[1]; 303.15 K, 100 kPa, x1 = 0.3863
  viscosity: 1.353 ± 0.031 mPa·s
[1]; 303.15 K, 100 kPa, x1 = 0.4889
  viscosity: 1.505 ± 0.034 mPa·s
[1]; 303.15 K, 100 kPa, x1 = 0.5801
  viscosity: 1.638 ± 0.037 mPa·s
[1]; 303.15 K, 100 kPa, x1 = 0.6819
  viscosity: 1.783 ± 0.04 mPa·s
[1]; 303.15 K, 100 kPa, x1 = 0.7805
  viscosity: 1.921 ± 0.044 mPa·s
[1]; 303.15 K, 100 kPa, x1 = 0.8801
  viscosity: 2.06 ± 0.047 mPa·s
[1]; 308.15 K, 100 kPa, x1 = 0.0825
  viscosity: 0.85 ± 0.019 mPa·s
[1]; 308.15 K, 100 kPa, x1 = 0.1712
  viscosity: 0.987 ± 0.023 mPa·s
[1]; 308.15 K, 100 kPa, x1 = 0.2787
  viscosity: 1.15 ± 0.026 mPa·s
[1]; 308.15 K, 100 kPa, x1 = 0.3863
  viscosity: 1.309 ± 0.03 mPa·s
[1]; 308.15 K, 100 kPa, x1 = 0.4889
  viscosity: 1.459 ± 0.033 mPa·s
[1]; 308.15 K, 100 kPa, x1 = 0.5801
  viscosity: 1.59 ± 0.036 mPa·s
[1]; 308.15 K, 100 kPa, x1 = 0.6819
  viscosity: 1.735 ± 0.039 mPa·s
[1]; 308.15 K, 100 kPa, x1 = 0.7805
  viscosity: 1.872 ± 0.042 mPa·s
[1]; 308.15 K, 100 kPa, x1 = 0.8801
  viscosity: 2.009 ± 0.046 mPa·s
[1]; 313.15 K, 100 kPa, x1 = 0.0825
  viscosity: 0.81 ± 0.019 mPa·s
[1]; 313.15 K, 100 kPa, x1 = 0.1712
  viscosity: 0.948 ± 0.022 mPa·s
[1]; 313.15 K, 100 kPa, x1 = 0.2787
  viscosity: 1.108 ± 0.025 mPa·s
[1]; 313.15 K, 100 kPa, x1 = 0.3863
  viscosity: 1.266 ± 0.029 mPa·s
[1]; 313.15 K, 100 kPa, x1 = 0.4889
  viscosity: 1.413 ± 0.032 mPa·s
[1]; 313.15 K, 100 kPa, x1 = 0.5801
  viscosity: 1.543 ± 0.035 mPa·s
[1]; 313.15 K, 100 kPa, x1 = 0.6819
  viscosity: 1.688 ± 0.038 mPa·s
[1]; 313.15 K, 100 kPa, x1 = 0.7805
  viscosity: 1.824 ± 0.041 mPa·s
[1]; 313.15 K, 100 kPa, x1 = 0.8801
  viscosity: 1.959 ± 0.044 mPa·s

## CCC1CCCCC1 + CC(=O)CC(C)C
[1]; 298.15 K, 101 kPa, x2 = 0.1314
  viscosity: 0.695 ± 0.007 mPa·s
[1]; 298.15 K, 101 kPa, x2 = 0.2549
  viscosity: 0.645 ± 0.007 mPa·s
[1]; 298.15 K, 101 kPa, x2 = 0.3669
  viscosity: 0.621 ± 0.006 mPa·s
[1]; 298.15 K, 101 kPa, x2 = 0.473
  viscosity: 0.6 ± 0.006 mPa·s
[1]; 298.15 K, 101 kPa, x2 = 0.5856
  viscosity: 0.583 ± 0.006 mPa·s
[1]; 298.15 K, 101 kPa, x2 = 0.7041
  viscosity: 0.567 ± 0.006 mPa·s
[1]; 298.15 K, 101 kPa, x2 = 0.8091
  viscosity: 0.556 ± 0.006 mPa·s
[1]; 298.15 K, 101 kPa, x2 = 0.9079
  viscosity: 0.547 ± 0.006 mPa·s
